Source: ChEMBL document CHEMBL4145518, “High anticancer potency on tumor cells of dehydroabietylamine Schiff-base derivatives and a copper(II) complex” (Eur J Med Chem, 2018)
Activity calls are given as the source filed them. No cut-off for these calls is given here.

Legend:
HepG2 [1] = test: Induction of apoptosis in human HepG2 cells assessed as viable cells at 10 ug/ml after 24 hrs by Annexin V/propidium iodide staining based flow cytometry (reference value: 83.13%); format: functional; conditions: HepG2, 24 h, read-out: Activity
HepG2 [2] = test: Induction of apoptosis in human HepG2 cells assessed as necrotic cells at 1 ug/ml after 24 hrs by Annexin V/propidium iodide staining based flow cytometry (reference value: 1.86%); format: functional
HepG2 [3] = test: Induction of apoptosis in human HepG2 cells assessed as early apoptotic cells at 1 ug/ml after 24 hrs by Annexin V/propidium iodide staining based flow cytometry (reference value: 7.92%); format: functional
Salmon testes DNA [4] = test: Binding affinity to salmon sperm DNA assessed as DNA intercalation at 5 10^-5M by ethidium bromide staining based fluorescence assay; format: nucleic-acid assay; conditions: Salmonidae
[5] = Selectivity index, ratio of IC50 for HUVEC to IC50 for human HepG2 cells; format: toxicity; conditions: HUVEC and HepG2 cells, read-out: Ratio IC50
HepG2 [6] = test: Induction of apoptosis in human HepG2 cells assessed as early apoptotic cells at 0.1 ug/ml after 24 hrs by Annexin V/propidium iodide staining based flow cytometry (reference value: 7.92%); format: functional
MCF7 = test: Antiproliferative activity against human MCF7 cells after 36 hrs by MTT assay; format: functional, cell-based; conditions: MCF7, 36 h
HepG2 [7] = test: Induction of apoptosis in human HepG2 cells assessed as early apoptotic cells at 10 ug/ml after 24 hrs by Annexin V/propidium iodide staining based flow cytometry (reference value: 7.92%); format: functional
HepG2 [8] = test: Antiproliferative activity against human HepG2 cells after 36 hrs by MTT assay; format: functional, cell-based; conditions: HepG2, 36 h
Salmon testes DNA [9] = test: Binding affinity to salmon sperm DNA assessed as hypochromic shift at 5 10^-5M by ethidium bromide staining based fluorescence assay; format: nucleic-acid assay; conditions: Salmonidae
A549 = test: Antiproliferative activity against human A549 cells after 36 hrs by MTT assay; format: functional, cell-based; conditions: A549, 36 h
HUVEC = test: Cytotoxicity against HUVEC assessed as reduction in cell viability after 36 hrs by MTT assay; format: cell-based; conditions: Homo sapiens
HepG2 [10] = test: Induction of apoptosis in human HepG2 cells assessed as necrotic cells at 10 ug/ml after 24 hrs by Annexin V/propidium iodide staining based flow cytometry (reference value: 1.86%); format: functional
HepG2 [11] = test: Induction of apoptosis in human HepG2 cells assessed as necrotic cells at 0.1 ug/ml after 24 hrs by Annexin V/propidium iodide staining based flow cytometry (reference value: 1.86%); format: functional
HeLa = test: Antiproliferative activity against human HeLa cells after 36 hrs by MTT assay; format: functional, cell-based
HepG2 [12] = test: Induction of apoptosis in human HepG2 cells assessed as viable cells at 0.1 ug/ml after 24 hrs by Annexin V/propidium iodide staining based flow cytometry (reference value: 83.13%); format: functional; conditions: HepG2, 24 h, read-out: Activity
HepG2 [13] = test: Induction of apoptosis in human HepG2 cells assessed as late apoptotic cells at 0.1 ug/ml after 24 hrs by Annexin V/propidium iodide staining based flow cytometry (reference value: 7.09%); format: functional
HepG2 [14] = test: Induction of apoptosis in human HepG2 cells assessed as late apoptotic cells at 10 ug/ml after 24 hrs by Annexin V/propidium iodide staining based flow cytometry (reference value: 7.09%); format: functional
HepG2 [15] = test: Induction of apoptosis in human HepG2 cells assessed as late apoptotic cells at 1 ug/ml after 24 hrs by Annexin V/propidium iodide staining based flow cytometry (reference value: 7.09%); format: functional
HepG2 [16] = test: Induction of apoptosis in human HepG2 cells assessed as viable cells at 1 ug/ml after 24 hrs by Annexin V/propidium iodide staining based flow cytometry (reference value: 83.13%); format: functional; conditions: HepG2, 24 h, read-out: Activity
Salmon testes DNA [17] = test: Binding affinity to salmon sperm DNA assessed as DNA intercalation at 1.5 10^-5M by ethidium bromide staining based fluorescence assay; format: nucleic-acid assay; conditions: Salmonidae
Salmon testes DNA [18] = test: Binding affinity to salmon sperm DNA assessed as hypochromic shift at 1.5 10^-5M by ethidium bromide staining based fluorescence assay; format: nucleic-acid assay; conditions: Salmonidae
Salmon testes DNA [19] = test: Binding affinity to salmon sperm DNA assessed as DNA intercalation by ethidium bromide staining based fluorescence assay; format: nucleic-acid assay; conditions: Salmonidae
Androgen receptor = biological target: T1, Androgen receptor (Homo sapiens, UniProt P10275); test: Binding affinity to androgen receptor (unknown origin)
T1 sequence (P10275 whole entry): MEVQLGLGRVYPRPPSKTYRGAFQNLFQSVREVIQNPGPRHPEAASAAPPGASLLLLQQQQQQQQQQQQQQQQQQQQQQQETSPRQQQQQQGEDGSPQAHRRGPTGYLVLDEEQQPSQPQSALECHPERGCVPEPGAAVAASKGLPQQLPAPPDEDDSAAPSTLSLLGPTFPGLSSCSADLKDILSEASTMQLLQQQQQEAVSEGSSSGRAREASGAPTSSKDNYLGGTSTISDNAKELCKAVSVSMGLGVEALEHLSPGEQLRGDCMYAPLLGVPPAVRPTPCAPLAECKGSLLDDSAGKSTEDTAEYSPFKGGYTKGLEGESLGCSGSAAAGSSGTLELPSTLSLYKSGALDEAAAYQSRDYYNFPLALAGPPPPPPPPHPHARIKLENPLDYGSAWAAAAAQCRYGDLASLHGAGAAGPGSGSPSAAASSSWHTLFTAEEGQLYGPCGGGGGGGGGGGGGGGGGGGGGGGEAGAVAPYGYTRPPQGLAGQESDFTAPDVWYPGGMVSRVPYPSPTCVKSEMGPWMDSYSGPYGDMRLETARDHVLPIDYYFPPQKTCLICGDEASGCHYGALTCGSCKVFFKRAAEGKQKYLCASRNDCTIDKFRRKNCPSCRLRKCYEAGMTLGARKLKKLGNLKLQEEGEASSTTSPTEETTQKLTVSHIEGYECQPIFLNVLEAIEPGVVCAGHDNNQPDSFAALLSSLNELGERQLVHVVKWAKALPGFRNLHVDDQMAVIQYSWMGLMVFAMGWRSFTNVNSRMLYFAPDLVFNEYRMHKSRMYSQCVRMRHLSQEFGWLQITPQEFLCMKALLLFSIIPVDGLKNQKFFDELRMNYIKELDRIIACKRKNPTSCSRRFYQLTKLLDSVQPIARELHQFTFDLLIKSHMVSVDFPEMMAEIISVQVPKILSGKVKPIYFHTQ

Row | Activity (Salmon testes DNA [4]) | IC50 (MCF7) [µM] | IC50 (HepG2 [8]) [µM] | IC50 (A549) [µM] | IC50 (HeLa) [µM] | Compound | viability at 10 µg/mL (HepG2 [1]) [%] | Activity (HepG2 [2]) [%] | Activity (HepG2 [3]) [%] | Activity (HepG2 [6]) [%] | Activity (HepG2 [7]) [%] | IC50 (HUVEC) [µM] | Activity (HepG2 [10]) [%] | Activity (HepG2 [11]) [%] | viability at 0.1 µg/mL (HepG2 [12]) [%] | Activity (HepG2 [13]) [%] | Activity (HepG2 [14]) [%] | Activity (HepG2 [15]) [%] | viability at 1 µg/mL (HepG2 [16]) [%] | other results
1 | Active | 2.58 | 0.14 | 7 | 7.86 | CC(C)c1ccc2c(c1)CC[C@H]1[C@](C)(C/N=C/c3c[nH]cn3)CCC[C@]21C | 0.93 | 0.23 | 60.49 | 33.71 | 98.78 | 26 | 0 | 0.66 | 52.7 | 12.9 | 0.29 | 6.39 | 32.9 | selectivity ratio [5]: 180; Activity (Salmon testes DNA [9]): Active
2 | Active | 14.1 | 10.7 | 17 | 11.2 | CCN(CC)c1ccc(/C=N/C[C@]2(C)CCC[C@]3(C)c4ccc(C(C)C)cc4CC[C@@H]23)c(O)c1 | – | – | – | – | – | 43.1 | – | – | – | – | – | – | – | –
3 | – | 4.28 | 0.24 | 3.17 | 3.22 | CC(C)c1ccc2c(c1)CC[C@H]1[C@](C)(C/N=C/c3ncc[nH]3)CCC[C@]21C | 1.06 | 0.25 | 51.15 | 26.33 | 98.32 | 7.67 | 0 | 0.69 | 54.4 | 18.54 | 0.32 | 10.13 | 38.5 | Activity (Salmon testes DNA [17]): Active; Activity (Salmon testes DNA [18]): Active
4 | Active | 5.41 | 17.6 | 40 | 41 | CC(C)c1ccc2c(c1)CC[C@H]1[C@](C)(C/N=C/c3cc(C(C)(C)C)cc(C(C)(C)C)c3O)CCC[C@]21C | – | – | – | – | – | 41 | – | – | – | – | – | – | – | –
5 | – | 19.4 | 2.56 | 5.02 | 2.02 | CC(C)c1ccc2c(c1)CC[C@H]1[C@](C)(CN)CCC[C@]21C | 1.4 | 0.24 | 44.79 | 22.94 | 91.91 | 1.27 | 0 | 0.69 | 60.9 | 15.46 | 0.7 | 22.98 | 32 | –
6 | – | – | – | – | – | COc1cccc2c1C(=O)c1c(O)c3c(c(O)c1C2=O)C[C@@](O)(C(=O)CO)C[C@@H]3O[C@H]1C[C@H](N)[C@H](O)[C@H](C)O1 [DOXORUBICIN] | 26.3 | 0.35 | 47.19 | 34.49 | 70.12 | – | 0 | 0.62 | 53.1 | 11.74 | 3.57 | 12.6 | 39.9 | Activity (Salmon testes DNA [19]): Active
7 | – | – | – | – | – | CC(C)c1ccc2c(c1)C(=O)C[C@H]1[C@@](C)(CNC(=O)c3ccccc3)CCC[C@]21C | – | – | – | – | – | – | – | – | – | – | – | – | – | IC50 (Androgen receptor): 83.8 µM
8 | Active | 25 | 10.5 | 41 | 20 | CC(C)c1ccc2c(c1)CC[C@H]1[C@](C)(C/N=C/c3cccc(C(C)(C)C)c3O)CCC[C@]21C | – | – | – | – | – | 33 | – | – | – | – | – | – | – | –
